From paper PMC9458250, “6-Formyl Umbelliferone, a Furanocoumarin from Angelica decursiva L., Inhibits Key Diabetes-Related Enzymes and Advanced Glycation End-Product Formation” (Molecules, 2022)
Each block holds one compound with its values, some of them ahead of it.

Experiments:
[1] = target: T1, PTP1B (human recombinant) (Homo sapiens, UniProt P18031); assay: PTP1B inhibition assay using pNPP; type: biochemical
T1 construct: purchased Biomol International LP (Plymouth Meeting, PA, USA)
T1 sequence (P18031 1-435): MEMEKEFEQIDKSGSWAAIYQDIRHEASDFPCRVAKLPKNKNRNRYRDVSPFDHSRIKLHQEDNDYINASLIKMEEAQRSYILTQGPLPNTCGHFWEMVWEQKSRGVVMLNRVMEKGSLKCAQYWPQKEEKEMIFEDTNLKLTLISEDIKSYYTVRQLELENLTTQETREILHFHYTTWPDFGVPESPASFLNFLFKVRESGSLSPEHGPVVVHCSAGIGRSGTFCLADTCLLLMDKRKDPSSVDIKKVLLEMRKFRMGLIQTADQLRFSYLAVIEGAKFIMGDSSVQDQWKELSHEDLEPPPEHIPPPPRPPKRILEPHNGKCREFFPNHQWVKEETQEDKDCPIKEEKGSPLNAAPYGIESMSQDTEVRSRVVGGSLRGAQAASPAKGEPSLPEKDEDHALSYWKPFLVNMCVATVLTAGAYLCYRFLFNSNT
Method: The PTP1B inhibitory activity was evaluated using pNPP according to the modified procedure reported by Ali et al..
(§1) To determine the inhibition mechanism, enzymatic inhibition at various concentrations of 6-FU was evaluated by monitoring the effects of different concentrations of substrates via Dixon plots. Dixon plots for PTP1B inhibition by 6-FU were obtained in the presence of 0.5, 1, and 2 mM pNPP. The test concentrations of 6-FU in the PTP1B kinetic analysis were 0, 1.25, 2.5, 5.0, and 10 µM. Dixon plots for α-glucosidase inhibition by 6-FU were performed in the presence of 0.625, 1.25, and 2.5 mM pNPG. The test concentrations of 6-FU used in the α-glucosidase kinetic analysis were 0, 31.25, 62.5, 125, and 250 µM. Both enzymatic procedures followed the PTP1B and α-glucosidase assay methods. Dixon plots for HRAR inhibition by 6-FU were performed in the presence of 5, 10, and 20 mM of DL-glyceraldehyde as the substrate. The test concentrations of 6-FU used in the HRAR kinetic analysis were 0, 0.08, 0.4, 2, and 10 µM. The Dixon plot is a graphical method [1/enzyme velocity (1/V) against inhibitor concentration (I)] for determining the type of enzyme inhibition and was used to determine the dissociation or inhibition constant (Ki) for the enzyme–inhibitor complex. Thus, the type of enzyme inhibition was determined by interpreting the Lineweaver–Burk plots, and the inhibition constants (Ki) were determined by interpreting the Dixon plots.

[2] = test system: advanced glycation end-product (AGE) formation; assay: Inhibition of fluorescent AGE formation in HSA-glucose-fructose system; set-up: species or system human; conditions: for percentage of inhibition of AGE formation: week 4 of incubation
Method: The formation of glycated HSA-fructose-glucose was examined according to a previously published method. To prepare the AGE reaction solution, 20 mg/mL HSA in 50 mM sodium phosphate buffer (pH 7.4) was added to 0.2M fructose, 0.2 M glucose, and 0.02% sodium azide to prevent bacterial growth. The reaction mixture (3.8 mL) was then mixed with 200 μL of various concentrations of 6-FU and aminoguanidine hydrochloride dissolved in 10% DMSO. The control was prepared using HSA and sugars, and a blank was prepared using only HSA in the same buffer. The reaction mixtures were incubated at 37 °C for 4 weeks. Aliquots of the reaction mixtures were then assayed to determine the presence of AGEs.
The ability of the isolates to inhibit AGE formation was evaluated according to a previously published method with slight modifications. To prepare the AGE reaction solution, 20 mg/mL HSA in 50mM sodium phosphate buffer (pH 7.4) was added to 0.2M fructose and 0.2 M glucose, along with 0.02% sodium azide to prevent bacterial growth. The reaction mixture (950 μL) was then combined with various concentrations of 6-FU (50 μL, test concentration ranging from 0.8 to 100 μM) dissolved in 10% DMSO. After incubating the mixture at 37 °C, AGE formation in the aliquots was determined at weekly intervals using a spectrofluorometric detector (FLx800 microplate fluorescence reader, Bio-Tek Instrument, Inc., Winooski, VT, USA) with excitation and emission wavelengths of 350 nm and 450 nm, respectively. The nucleophilic hydrazine compound aminoguanidine was used as a reference in the AGE assay.

C2C12 cells = assay: C2C12 cell viability (MTT assay); type: cell-based; conditions: 24 h, up to 40 μM (tested up to 80 μM)
Method: The C2C12 cell line (skeletal muscle cells) was purchased from the American Type Culture Collection (Manassas, VA, USA). The C2C12 cells were cultured at 37 °C in DMEM supplemented with 10% FBS and P/S (Hyclone, Mordialloc, VIC, Australia) in a humidified atmosphere with 5% CO2. The tetrazolium dye colorimetric test (MTT) was used to determine cell viability. First, the C2C12 cells were cultured in 96-well plates (2 × 10^5 cells/well) for 24 h. After they reached 90% confluence, they were treated with various concentrations of 6-FU. After 24 h of incubation, the MTT reagent was added to each well, and the plate was incubated for 2 h at 37 °C. The media were removed, and the wells were washed twice with PBS (pH 7.4). To measure the proportion of surviving cells, the medium was replaced with 100 μL DMSO (100%). The resulting absorbance values were measured at 570 nm with a microplate reader (Molecular Devices, Sunnyvale, CA, USA).

[3] = test system: insulin-resistant C2C12 skeletal muscle cells; assay: 2-NBDG glucose uptake assay; type: cell-based
Method: The C2C12 cells were cultured in 96-well plates (2 × 10^5 cells/well) with DMEM containing 10% FBS and 1% P/S at 37 °C and exposed to a 5% CO2 atmosphere. When the cells reached confluence, they were subjected to differentiation in DMEM supplemented with 2% horse serum for 5 days. Then the cells were starved in low-glucose serum-free DMEM for 24 h. Subsequently, the 2-NBDG assay was performed to evaluate glucose uptake. The cells were treated with various concentrations of 6-FU and insulin (100 nM) for 12 h, followed by 20 μM 2-NBDG for 24 h. To stop the response, the cells were washed three times with ice-cold PBS, and then the 2-NBDG fluorescence intensity was measured on a microplate reader (FL × 800, Bio-Tek Instruments Inc., Winooski, VT, USA) at 490 nm (excitation) and 535 nm (emission). Five replicate wells were established, and each experiment was replicated three times. Rosiglitazone was used as the positive control.

[4] = test system: PTP1B expression in insulin-resistant C2C12 cells; assay: PTP1B expression by Western blot; type: cell-based; conditions: 40 μM, 24 h
Method: Insulin-resistant C2C12 cells (2 × 10^5 cells/well) in 6-well plates were treated with different concentrations of 6-FU for 24 h. After stimulation with 100 nM insulin for 30 min at 37 °C, the cells were washed three times with ice-cold PBS, collected, and lysed with sample buffer (50 mM HEPES, pH 7.5, 150 mM NaCl, 2.5 mM EDTA, 0.5% NP40, 1 mM PMSF, 1 mM DTT, 0.2% aprotinin, 0.5% leupeptin, 20 mM NaF, and 1 mM Na3VO4) on ice. After incubation for 30 min, the insoluble materials were removed by centrifugation at 25,000× g for 20 min. The protein concentrations were determined using a modified Bradford protein assay kit. Total protein (50 μg) was subjected to dodecyl sulfate–polyacrylamide gel electrophoresis and transferred to a polyvinylidene difluoride membrane. The membranes were blocked in blocking buffer (5% skim milk in Tris-buffered saline containing 0.1% Tween 20 (TBST)) and incubated with primary antibodies overnight at 4 °C, followed by incubation with appropriate secondary antibodies for 4 h at room temperature. The membranes were washed three times with TBST for 40 min. The bands were detected using Super Signal West Pico chemiluminescence substrate (Pierce, Rockford, IL, USA) according to the manufacturer’s instructions. The immunoreactive protein bands were detected using an Odyssey scanning system (LI-COR, Lincoln, NE, USA). […]

[5] = target: T2, human recombinant aldose reductase (HRAR) (Homo sapiens, UniProt P15121); assay: HRAR inhibition assay (NADPH absorption decrease, DL-glyceraldehyde substrate); type: biochemical
T2 construct: purchased Wako Chemicals (Osaka, Japan)
Method: HRAR inhibition was examined as described by Ali et al.. Briefly, AR activity was determined by measuring the decrease in NADPH absorption at 340 nm over a period of 1 min on an Ultrospec®2100pro UV/Visible spectrophotometer (Cytiva, Buckinghamshire, UK). SWIFT II Applications software (Amersham Biosciences, NJ, USA) was used for all data analyses. […] The inhibition percentage (%) was calculated as described in the RLAR assay, except that the DA sample per min value represented the reduction in absorbance for 1 min with the test samples and substrate. The ability of each sample to inhibit HRAR was expressed as an IC50 value (µM), which was calculated from the log-dose inhibition curve.
as §1

Yeast α-glucosidase = Yeast α-glucosidase (Saccharomyces cerevisiae, UniProt P53341); assay: α-glucosidase inhibitory assay using pNPG; type: biochemical; conditions: Dixon and Lineweaver-Burk plots
Method: as §1

[6] = Dixon and Lineweaver-Burk plots

Sequence of Yeast α-glucosidase (P53341 whole entry): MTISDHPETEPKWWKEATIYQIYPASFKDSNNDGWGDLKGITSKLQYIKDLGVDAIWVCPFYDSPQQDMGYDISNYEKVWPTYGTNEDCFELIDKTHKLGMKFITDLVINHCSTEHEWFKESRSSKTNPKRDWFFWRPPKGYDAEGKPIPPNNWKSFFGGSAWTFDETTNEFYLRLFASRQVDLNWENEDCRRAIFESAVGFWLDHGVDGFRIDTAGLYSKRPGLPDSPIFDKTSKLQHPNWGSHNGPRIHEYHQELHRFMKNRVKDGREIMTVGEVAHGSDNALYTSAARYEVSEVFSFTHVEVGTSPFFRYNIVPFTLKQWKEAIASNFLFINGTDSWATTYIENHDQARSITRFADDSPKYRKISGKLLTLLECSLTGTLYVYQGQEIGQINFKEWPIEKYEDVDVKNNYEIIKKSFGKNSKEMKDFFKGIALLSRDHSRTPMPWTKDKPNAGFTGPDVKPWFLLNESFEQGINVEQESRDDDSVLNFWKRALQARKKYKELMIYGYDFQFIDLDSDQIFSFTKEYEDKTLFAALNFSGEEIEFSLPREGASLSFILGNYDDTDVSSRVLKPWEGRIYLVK

Structure (SMILES): O=Cc1cc2ccc(=O)oc2cc1O [6-FU, 6-formyl umbelliferone]
IC50 [1]: 1130 ± 120 nM | Ki [1]: 1720 nM | Inhibition type PTP1B [1, 6]: Competitive | IC50 ([2]; AGE formation, mean ± SEM of triplicates): 2150 ± 130 nM | percentage of inhibition of AGE formation ([2]; 0.8 μM): 24.04% | percentage of inhibition of AGE formation ([2]; 4.0 μM): 55.73% | percentage of inhibition of AGE formation ([2]; 20 μM): 64.18% | percentage of inhibition of AGE formation ([2]; 100 μM): 82.60% | cytotoxicity (cell viability, MTT) (C2C12 cells): not cytotoxic | insulin-stimulated 2-NBDG uptake ([3]; 10, 20, and 40 μM, compared with the control): significantly enhanced | PTP1B expression level [4]: decreased | IC50 [5]: 5110 ± 210 nM | Ki [5]: 4870 nM | Inhibition type HRAR [5, 6]: Mixed | Inhibition type α-Glucosidase (Yeast α-glucosidase): Mixed

Structure (SMILES): N=C(N)NN [Aminoguanidine, aminoguanidine, reference compound]
percentage of inhibition of AGE formation ([2]; 100 μM): 57.23%

IC50 [5]: 630 ± 10 nM
Structure (SMILES): O=C(O)Cn1c(=O)n(Cc2ccc(Br)cc2F)c(=O)c2ccc(Cl)cc21 [Zenarestat, zenarestat, reference compound]

Structure (SMILES): CN(CCOc1ccc(CC2SC(=O)NC2=O)cc1)c1ccccn1 (stereo not drawn) [rosiglitazone, reference compound]
insulin-stimulated glucose uptake ([3]; 5 μM): significantly increased
